The test system of one data set is IGFBP-2 mRNA. In words: transcriptional profiling of amygdala of drug-treated rats. The settings on record: rat amygdala. Type of data set: in vivo. The source says: In the short-term 3 day treatment, it is possible that the drugs might exert their antidepressant effects through decreasing IGFBP-2 expression, which would increase bioavailability of IGF-I. The long-term treatment is of equivalent magnitude but in the opposite direction. This may represent a compensatory mechanism in response to the short-term drug effects.

Another data set concerns the target T1, IGFBP-2 (Homo sapiens, UniProt P18065).
T1 sequence (P18065 with tags, fused parts or gaps DUP19-21/R317C): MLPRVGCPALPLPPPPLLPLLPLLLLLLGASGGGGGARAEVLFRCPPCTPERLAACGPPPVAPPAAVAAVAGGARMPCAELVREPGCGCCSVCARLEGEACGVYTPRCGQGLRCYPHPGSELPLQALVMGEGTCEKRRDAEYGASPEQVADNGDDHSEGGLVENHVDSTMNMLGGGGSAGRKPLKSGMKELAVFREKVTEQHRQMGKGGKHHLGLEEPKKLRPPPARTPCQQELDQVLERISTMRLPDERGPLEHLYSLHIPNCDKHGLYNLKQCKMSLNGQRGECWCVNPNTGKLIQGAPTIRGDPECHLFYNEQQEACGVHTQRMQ
The conditions noted are these: cited from earlier work.

For the next data set, the system named is Balb/C mice. In words: mouse elevated zero maze (EZM). The data set is classed as in vivo. The method, then:
(§1) To assess the anxiolytic activity of NBI-31772, mice receiving intraventricular administration of NBI-31772 were tested in an elevated zero maze (EZM) or in a four-plate appratus (FPT). NBI-31722 (availabe from Calbiochem/EMD Biosciences, Inc. of San Diego, Calif.) was administered in a volume of 2 μl. Balb/C mice were used for the elevated zero maze and Swiss-Webster mice were used for the four-plate test. One-way analysis of variance (ANOVA) was performed on behavioral data to determine effects of test compound treatments, followed by Least Significant Difference Tests for a post hoc analysis. Data is presented as the mean±SEM.
These effects are similar to those seen with reference anxiolytic compounds chlordiazepoxide and diazepam (Ring et al., Psychopharmacology (Berl.), 2006, 185(2):218-225) and are indicative of anxiolytic-like activity of NBI-31772 in the EZM.

Data set [1] relates to Swiss-Webster mice. The data set can be described thus: mouse tail suspension test (TST). Type of data set: in vivo. The settings on record: for immobility: 20 minutes prior to testing. The method, then:
To assess the on potential antidepressant effects of NBI-31772, Swiss-Webster mice were analyzed using the Tail Suspension Test (TST). In this test, mice were suspended upside down by taping their tails with adhesive laboratory tape (VWR International of West Chester, Pa.) to a flat metal bar connected to a strain gauge within a sound-attenuating chamber (Med Associates Inc. of St. Albans, Vt.). The bar is positioned such that a mouse is not able to grasp the top or the sides of the chamber. The total time spent immobile during a 6-minute test session is automatically recorded. Compounds that decrease the total immobility time compared to control animals are predicted to have antidepressant-like effects. In each study, mice were given a single icv injection of test compound or vehicle 20 minute prior to the test session. Mice were housed individually during the interval between injection and behavioral testing.
One-way analysis of variance (ANOVA) was performed on behavioral data to determine effects of NBI-31772 treatment, followed by Least Significant Difference Tests for a post hoc analysis. The data is presented as the mean±SEM. […] This decrease in immobility indicates antidepressant-like effects similar to that seen with IGF-1.
The mouse tail suspension test was performed and statistical analyses conducted as described in Example 11.

The next data set relates to fibroblast. The conditions noted are these: IGF-I released from binding protein complex; cited from earlier work.
The subject of the next data set is IGFBP-1 to IGFBP-6. The settings on record: cited from earlier work.
Data set [2] relates to Swiss-Webster mice. In words: mouse four-plate test (FPT), punished crossings. The data set is classed as in vivo. The method, then:
as §1
The four-plate apparatus consists of a Plexiglas chamber (18×25×16 cm) with a floor consisting of four rectangular metal plates (8×11 cm), which are separated from one another by a 4 mm gap. All four plates are wired to a shock generator (0.8 mA, 0.5 second; Med Associates Inc. of St. Albans, Vt.). In each experiment, mice are placed into the chamber and given an 18-second habituation period followed by a 1-minute test. During the test, the animal's innate motivation to explore the novel environment is suppressed by the delivery of a mild foot shock every time the animal moves from one plate to another (referred to as a ‘punished crossing’). Following each punished crossing, there is a 3-second time out where the mouse may cross the plates without receiving another shock. An experimenter blind to the dosing conditions administers shocks, and a computer records the total number of punished crossings an animal makes during the testing period. Clinically effective classes of anxiolytic compounds such as benzodiazepines, selective serotonin reuptake inhibitors, or 5-HT1A […] produce increases in punished crossings, which is indicative of anxiolytic-like activity.
In each study, mice were given a single icv injection or two icv injections of test compounds or vehicle 20 minutes prior to the test session, and the number of punished crosses during the 1-minute test was recorded. For experiments where 2 icv injections were given, an animal received an injection in both the left and right ventricles, with the second injection given immediately after the first injection. A 26-gauge Hamilton syringe with 3-mm needle was used for injections and the injection site was visualized by locating the middle of the invisible line that runs diagonally from the left eye to the right ear. Mice were housed individually during the interval between injections and behavioral testing.
The mouse four-plate test was performed and statistical analyses conducted as described in Example 9.
In these studies, NBI-31772 and JB1, an IGF-1R antagonist, were administered centrally (icv) with the two injections occurring sequentially. Compounds were administered 20 minutes prior to testing and the number of punished crosses during the 1-minute test was recorded.

A further data set concerns IGF-I mRNA. In words: microarray profiling of antidepressant-treated C6 glioma cell lines. The conditions noted are these: quiescent C6 glioma cell lines, 24 hours. Type of data set: cell-based. The source says:
Glial cell cultures were used because they lack endogenous serotonin and norepinephrine transporter mechanisms. Thus, any transcriptional effects caused by the antidepressant drugs are due to actions beyond the level of the serotonin and norepinephrine receptors and respective transporters. […] Antidepressant drugs may therefore be acting on the glia, which produces the neurotrophic factor IGF-I, which acts in a juxtacrine manner to stimulate neurogenesis.

For data set [3] the following is noted: cited from earlier work.
A further data set has as its system adult rat dentate gyrus. The data set can be described thus: BrdU-positive cell proliferation in adult rat dentate gyrus after chronic icv infusion. Type of data set: in vivo. The conditions noted are these: 10 days icv via minipump, sacrifice Day 11. How it is done: Previous investigators have shown that IGF-1 administered either intracerebroventricular (icv) or systemically increases proliferation and survival, and (Aberg, et al, 2000; Lichtenwalner et al, 2000). Furthermore, systemic IGF promotes neuronal differentiation. The present study confirms and extends these previous findings. Rats were given IGF-1 for 10 days via a cannula attached to a semiosmotic minipump. On Day 11, animals were sacrificed and quantitative analysis was performed to determine the number of BrdU-positive cells as a measure of cell proliferation. A 66% increase in BrdU-positive cells per hippocampus compared to saline-infused animals was observed (FIG. 10).

The conditions of data set [4]: rats, subcutaneous deposition; cited from earlier work.

Entries after “also recorded” stand apart in the source; their conditions may differ.

As to `O=C1CC2(CCCC2)CC(=O)N1CCCCN1CCN(c2ncccn2)CC1` [Buspirone], the “expression of IGFBP-2 mRNA compared to vehicle alone” value in the data set with IGFBP-2 mRNA (3 day treatment) is listed as “decreased expression”; in the data set on IGFBP-2 mRNA (14 day treatment) it was “increased expression”.
The like results for `C[C@]12CC[C@H]3[C@@H](CC[C@@H]4C[C@@](O)(C(F)(F)F)CC[C@@H]43)[C@@H]1CC[C@@H]2C(=O)CO` [GMA-839] were, in that order, “decreased expression” and “increased expression”.
For the compound `O=C(O)c1cc2cc(O)c(O)cc2c(C(=O)c2ccc(O)c(O)c2)n1` [NBI-31772], the “activity toward IGFBP-2 compared to the other five IGFBPs” value at IGFBP-2 is recorded as “highest activity”. Further, the “increase in % time in the open arms compared to the vehicle group” value in the data set on Balb/C mice (0.3 μg icv) is 100%; in the data set with Balb/C mice (1 μg icv), 100%; with Balb/C mice (3 μg icv), 81%; with Balb/C mice (10 μg icv), 119%. Besides, the “% time spent in the open arms of the maze” value in the data set with Balb/C mice (0.1-10 μg, icv, 20 minutes prior to testing) is “dose-dependent increase”. Further, the decrease in immobility in the data set with Swiss-Webster mice [1] (3 μg icv) worked out at 32%; in the data set with Swiss-Webster mice [1] (10 μg icv), 35%; in the data set with Swiss-Webster mice [1] (30 μg icv), 38%. Also, the immobility result with Swiss-Webster mice [1] (0.3-30 μg icv) is given as “dose-dependent decrease”. In addition, the “biological activity of the released IGF-I” value in the data set on fibroblast is “biologically active”. For the same compound, the “dissociation of IGF-I from its binding protein complex” value in the data set on IGFBP-1 to IGFBP-6 is reported as “dissociates”. The “inhibition of 125I IGF-I binding / interaction of IGF-I with IGFBP-1 to 6” value in the data set with IGFBP-1 to IGFBP-6 is recorded as “inhibits; also recorded: dose-dependent inhibition”. Moreover, the “increase in punished crossings” value in the data set on Swiss-Webster mice [2] (10 μg icv) came to 22%; in the data set on Swiss-Webster mice [2] (30 μg icv), 32%. Moreover, in the data set on Swiss-Webster mice [2] (30 μg icv, two sequential icv injections study), the “increase in punished crossings compared to vehicle group” value was determined as 24%. Besides, the “seizures, percentage of animals” value in the data set on Swiss-Webster mice [2] (56 μg icv) is 20%; with Swiss-Webster mice [2] (100 μg icv), 40%. Further, the punished crossings result is given as “dose-dependent increase” with Swiss-Webster mice [2] (3.0-30 μg, icv); “an increase in punished crossings was seen” in the data set on Swiss-Webster mice [2] (higher doses 56 and 100 μg icv, not used for analysis).
`Fc1ccc([C@@H]2CCNC[C@H]2COc2ccc3c(c2)OCO3)cc1` [Paroxetine]: the “expression of IGFBP-2 mRNA compared to vehicle alone” value in the data set on IGFBP-2 mRNA (3 day treatment) is recorded as “decreased expression”; in the data set with IGFBP-2 mRNA (14 day treatment), “increased expression”.
For `CNCCCN1c2ccccc2CCc2ccccc21` [desipramine], the “expression of IGF-I mRNA” value in the data set on IGF-I mRNA is “increased expression”.
Consider `CNCCC(Oc1ccc(C(F)(F)F)cc1)c1ccccc1` (stereo not shown) [fluoxetine], for which the “expression of IGF-I mRNA” value in the data set with IGF-I mRNA is listed as “increased expression”.
Regarding `COc1ccc(C(CN(C)C)C2(O)CCCCC2)cc1` (stereo not shown) [venlafaxine], the “expression of IGF-I mRNA” value in the data set on IGF-I mRNA was “increased expression”.
As to “IGF-1: recombinant human IGF-1, insulin-like growth factor, available from Bachem Biosciences”, the serum half-life in data set [3] was 10 min. The “decrease in immobility from vehicle” value in the data set on Swiss-Webster mice [1] (10 μg dose) was determined as 33%. Moreover, the immobility result with Swiss-Webster mice [1] (1-10 μg) is reported as “dose-dependent decrease”. Moreover, the “inhibition of 125I IGF-I binding / interaction of IGF-I with IGFBP-1 to 6” value with IGFBP-1 to IGFBP-6 is listed as “dose-dependent inhibition”. The “increase in BrdU-positive cells per hippocampus compared to saline-infused animals” value in the data set on adult rat dentate gyrus worked out at 66%. For the same compound, in the data set on Swiss-Webster mice [2] (0.01 μg dose, central administration), the “increase in punished crossings from vehicle” value was 32%. Further, the “effects in the four-plate test (FIG. 13)” value with Swiss-Webster mice [2] (0.1 μg) is “anxiolytic-like effects”. In the data set with Swiss-Webster mice [2] (0.03-1.0 μg, central administration 20 minutes prior to testing), the punished crossings result is reported as “significant overall effect”. In data set [4], the “concentrations in the CNS relative to those in the serum” value is “about 0.5%” and the “plasma concentrations at which uptake into CSF reached a plateau” value is recorded as “above 150 ng/ml”.
Regarding “complex of IGF-I and IGFBP-3: dimeric complex of IGF-I and IGFBP-3 in serum”, the serum half-life in data set [3] is 30 min.

The values are drawn from US20060276394A1, “METHODS AND COMPOSITIONS FOR TREATING NEUROLOGICAL DISORDERS” (WYETH, priority 2002, published 2006).
